Active and inactive are the calls of the source. The rule behind the calls is not given here.
Key:
[1] = Induction of adiponectin secretion in human BMMSC cells in presence of IDX induction medium by ELISA assay; type: functional, cell-based; settings: Mesenchymal stem cells
Mesenchymal stem cells [2] = assay: Induction of adiponectin secretion in human BMMSC cells at 10 uM in presence of IDX induction medium by ELISA assay; type: functional, cell-based
[3] = target: T1, Peroxisome proliferator-activated receptor alpha (Homo sapiens) (UniProt Q07869); assay: Binding affinity to PPARalpha (unknown origin) upto 10 uM by TR-FRET-based competitive binding assay
T1 sequence (whole entry): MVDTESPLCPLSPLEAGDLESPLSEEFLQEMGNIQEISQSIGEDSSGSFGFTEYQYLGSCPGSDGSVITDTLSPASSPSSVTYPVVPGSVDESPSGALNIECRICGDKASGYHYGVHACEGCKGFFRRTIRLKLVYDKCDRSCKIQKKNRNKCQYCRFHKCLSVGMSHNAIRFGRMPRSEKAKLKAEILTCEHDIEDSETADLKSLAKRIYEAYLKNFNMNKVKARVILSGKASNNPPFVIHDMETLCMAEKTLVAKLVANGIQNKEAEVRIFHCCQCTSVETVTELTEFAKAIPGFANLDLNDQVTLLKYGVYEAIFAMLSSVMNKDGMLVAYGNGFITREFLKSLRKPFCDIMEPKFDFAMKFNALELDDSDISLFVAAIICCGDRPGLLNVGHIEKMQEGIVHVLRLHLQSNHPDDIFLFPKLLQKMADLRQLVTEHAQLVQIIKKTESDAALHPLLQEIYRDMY

[4] = target: T2, Peroxisome proliferator-activated receptor delta (Homo sapiens) (UniProt Q03181); assay: Binding affinity to PPARdelta (unknown origin) upto 10 uM by TR-FRET-based competitive binding assay
T2 sequence (whole entry): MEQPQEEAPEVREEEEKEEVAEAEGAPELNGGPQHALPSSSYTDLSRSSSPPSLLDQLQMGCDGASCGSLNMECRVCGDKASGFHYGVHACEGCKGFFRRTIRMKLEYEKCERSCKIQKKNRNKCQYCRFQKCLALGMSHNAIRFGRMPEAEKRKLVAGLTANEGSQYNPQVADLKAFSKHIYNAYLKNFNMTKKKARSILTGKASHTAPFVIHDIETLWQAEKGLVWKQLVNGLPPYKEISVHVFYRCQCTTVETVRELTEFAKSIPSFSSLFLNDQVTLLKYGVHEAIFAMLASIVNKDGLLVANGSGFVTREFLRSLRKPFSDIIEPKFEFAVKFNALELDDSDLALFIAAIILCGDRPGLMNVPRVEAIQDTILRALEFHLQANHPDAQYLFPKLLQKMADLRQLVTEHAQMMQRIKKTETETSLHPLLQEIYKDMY

[5] = Induction of adiponectin secretion in human BMMSC cells assessed as fold increase in adiponectin level at 10 uM in presence of IDX induction medium by ELISA assay; type: functional, Mesenchymal stem cells
Mesenchymal stem cells [6] = assay: Upregulation of ADIPOQ mRNA expression in human BMMSC cells at 10 uM in presence of IDX induction medium by qRT-PCR assay; type: functional, cell-based
Mesenchymal stem cells [7] = assay: Upregulation of FABP4 mRNA expression in human BMMSC cells at 10 uM in presence of IDX induction medium by qRT-PCR assay; type: functional, cell-based
Mesenchymal stem cells [8] = assay: Upregulation of PPARgamma mRNA expression in human BMMSC cells at 10 uM in presence of IDX induction medium by qRT-PCR assay; type: functional, cell-based
Mesenchymal stem cells [9] = assay: Induction of adiponectin secretion in human BMMSC cells assessed as increase in number of lipid droplets at 10 uM in presence of IDX induction medium by Oil Red O staining based inverted microscopic analysis; type: functional, cell-based
Mesenchymal stem cells [10] = assay: Induction of adiponectin secretion in human BMMSC cells assessed as increase in size of lipid droplets at 10 uM in presence of IDX induction medium by Oil Red O staining based inverted microscopic analysis; type: functional, cell-based
[11] = target: T3, Peroxisome proliferator-activated receptor gamma (Homo sapiens, UniProt P37231); assay: Binding affinity to PPARgamma (unknown origin) by TR-FRET-based competitive binding assay
T3 sequence (P37231 whole entry): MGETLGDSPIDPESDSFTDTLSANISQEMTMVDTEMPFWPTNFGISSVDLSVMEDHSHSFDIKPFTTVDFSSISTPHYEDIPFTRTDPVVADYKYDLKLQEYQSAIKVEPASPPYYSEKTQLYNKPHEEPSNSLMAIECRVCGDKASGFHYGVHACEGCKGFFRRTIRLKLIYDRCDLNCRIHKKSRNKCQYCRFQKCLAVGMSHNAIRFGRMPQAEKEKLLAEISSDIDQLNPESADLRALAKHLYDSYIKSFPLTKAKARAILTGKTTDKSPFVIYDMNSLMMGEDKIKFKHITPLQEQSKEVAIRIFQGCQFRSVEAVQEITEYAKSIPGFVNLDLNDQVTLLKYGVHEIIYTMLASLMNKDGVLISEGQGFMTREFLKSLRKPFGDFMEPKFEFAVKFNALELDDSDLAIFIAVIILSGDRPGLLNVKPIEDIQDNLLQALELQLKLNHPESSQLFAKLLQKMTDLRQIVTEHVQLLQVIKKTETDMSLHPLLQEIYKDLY

Mesenchymal stem cells [12] = assay: Potency index, ratio of EC50 for chrysin to EC50 for test compound for induction of adiponectin secretion in human BMMSC cells; type: functional
[13] = target: T3, Peroxisome proliferator-activated receptor gamma; assay: Partial agonist activity at PPARgamma (unknown origin) by TR-FRET-based competitive binding assay
[14] = target: T3, Peroxisome proliferator-activated receptor gamma; assay: Agonist activity at PPARgamma LBD (unknown origin) assessed as increase in recruitment of coactivator RAP250 to PPARgamma LBD by TR-FRET-based nuclear receptor coactivator assay

Compound | EC50 [1] [µM] | Activity (Mesenchymal stem cells [2]) | Activity [3] | Activity [4] | fold change (FC) [5] | also measured
CCc1ccc(CCOc2ccc(CC3SC(=O)NC3=O)cc2)nc1 (centres undefined) [PIOGLITAZONE] | 0.5 | – | – | – | – | –
O=c1cc(-c2ccccc2)oc2cc(OCc3ccccc3)cc(OCc3ccccc3)c12 | – | Active | inactive | inactive | – | –
O=c1cc(-c2ccccc2)oc2cc(O)cc(OCc3ccc(F)cc3)c12 | – | Active | inactive | inactive | – | –
COc1cc(OCc2ccccc2)cc2oc(-c3ccccc3)cc(=O)c12 | – | – | inactive | inactive | – | –
CC(C)=CCOc1cc(OCc2ccccc2)cc2oc(-c3ccccc3)cc(=O)c12 | – | Active | inactive | inactive | 3.3 | –
O=c1cc(-c2ccccc2)oc2cc(O)cc(OCc3ccc(Cl)cc3)c12 | – | Active | inactive | inactive | – | –
CC(C)=CCOc1cc(OCC=C(C)C)c2c(=O)cc(-c3ccccc3)oc2c1 | 4 | Active | inactive | inactive | 4.8 | Activity (Mesenchymal stem cells [6]): Active; Activity (Mesenchymal stem cells [7]): Active; Activity (Mesenchymal stem cells [8]): Active; Activity (Mesenchymal stem cells [9]): Active; Activity (Mesenchymal stem cells [10]): Active; Ki [11]: 0.37 µM; Ratio EC50 (Mesenchymal stem cells [12]): 9
O=c1cc(-c2ccccc2)oc2cc(O)cc(O)c12 [CHRYSIN] | 77.7 | Active | inactive | inactive | 2.3 | Activity (Mesenchymal stem cells [9]): Active; Activity (Mesenchymal stem cells [10]): Active
CCCc1nc2c(C)cc(-c3nc4ccccc4n3C)cc2n1Cc1ccc(-c2ccccc2C(=O)O)cc1 | 4.7 | – | – | – | – | Ki [13]: 1.08 µM
O=c1cc(-c2ccccc2)oc2cc(OCc3ccccc3)cc(O)c12 | – | Active | inactive | inactive | – | –
O=c1cc(-c2ccccc2)oc2cc(O)cc(OCc3ccccc3)c12 | – | Active | inactive | inactive | – | –
CC(C)=CCOc1cc(OCc2ccccc2)c2c(=O)cc(-c3ccccc3)oc2c1 | 8.5 | Active | inactive | inactive | 3.8 | Activity (Mesenchymal stem cells [6]): Active; Activity (Mesenchymal stem cells [7]): Active; Activity (Mesenchymal stem cells [8]): Active; Activity (Mesenchymal stem cells [9]): Active; Activity (Mesenchymal stem cells [10]): Active; Ki [11]: 0.55 µM; EC50 [14]: 19.6 µM; Ratio EC50 (Mesenchymal stem cells [12]): 9
C=CCOc1cc(O)cc2oc(-c3ccccc3)cc(=O)c12 | – | Active | inactive | inactive | – | –

From ChEMBL document CHEMBL5252661 (ACS Med Chem Lett, 2023)
